Where two headings read alike, the source gives them in different places.
Assays:
[1] = target: T1, melanocortin MC-4 receptor (Homo sapiens, UniProt P32245); experiment: Melanocortin MC-4 Receptor Binding Assay (SPA)
T1 construct: purchased Receptor Biology Inc
Experimental: Melanocortin MC-4 Receptor Binding Assay Melanocortin [MC-4]-membrane [purchased from Receptor Biology Inc] was coupled to wheat germ agglutinin coated polyvinyl toluene-Scintillation Proximity Assay beads [purchased from Amersham Pharmacia Inc.] for 30 min at 25° C. Into each well of a 96-well Opti plate [purchased from Packard, Calif.], 2.5 μg of membrane and 0.25 mg of beads were mixed in a volume of 100 μL media. […] Test compounds (1.5 μL) at 1 mM in 30% DMSO-50 mM HEPES, pH 7.4 buffer was added to separate wells on the plate. Radioactive ligand ^125I-NDP-melanocyte stimulating hormone [NEN, 2000Ci/mmol] was added to each well (48.5 μL per well, 40 pM final concentration). The plate was then sealed and let stand for 16 hr at 25° C. NDP-Melanocyte stimulating hormone peptide and α-melanocyte stimulating hormone peptide [purchased from Palomar Research Inc, 1 μM] were used as reference inhibitor compounds to define non-specific binding (N). Total binding (T) was defined using 30% DMSO-50 mM HEPES, pH 7.4 buffer. Bound radioactivity for each well (Y), measured at counts per minute (cpm) was measured in a TopCount [Packard, Calif.]. Percent inhibition was calculated as: […] The procedures described above for the melanocortin MC-4 receptor were repeated for the melanocortin MC-3 receptor. Following the procedures described, representative compounds of the present invention were tested for binding in the MC-4 and/or MC-3 assay, as listed in Table 4.

Hippocampal Cells = experiment: Neurite Cell Outgrowth Assay, hippocampal cells; assay type: cell-based; conditions: Rattus norvegicus; 50 nM; percent change over the vehicle response; NA = no change/not active
Source text: (§1) Dissociated hippocampal and cortical cell cultures were established from embryonic day 18 rat fetuses as described by Mattson, M. P., Barger, S. W., Begley, J, and Mark, R. J., Methods Cell Biol., 1994, 46:[…]. Briefly, fetuses were removed via cesarean section from pregnant moms (Sprague-Dawley) and anesthetized with halothane according to the AVMA Panel on Euthanasia. Pups were decapitated and the brains were removed and placed in HEPES-buffered Hank's Balanced Salt solution (HBSS; Gibco). The hippocampi and cortices were dissected out and pooled according to tissue-type. Tissue was trypsinized for 15 min (1 mg/ml trypsin-HBSS; Worthington), rinsed with fresh HBSS, incubated in trypsin inhibitor (1 mg/ml; Sigma) for 5 min, rinsed again with fresh HBSS and then triturated in 1 ml fresh HBSS with a fire-polished glass pipette. Dissociated cells were seeded at 30,000 cells/well onto poly-D-lysine coated 96-well plates (Collaborative BioScience). Each well contained 100 μl of Eagle's Minimal Essential Media (MEM; Gibco) supplemented with 26 mM NaHCO3 (Sigma), 56 mM glucose (Sigma), 15 mM KCl (Sigma), 1 mM sodium pyruvate (Sigma), 1.1 mM L-glutamine (Sigma), 10% (v/v) heat-inactivated fetal bovine serum (Hyclone), and 0.001% gentamicin sulfate (Sigma) (pH 7.4). Cells were allowed to attach for 24 h in a humidified 37° C. 5% CO2 incubator before experimental treatment. The culture media was aspirated and exchanged with fresh media every 3 days.
(§2) Twenty-four hours after plating, cultures were treated with vehicle (PBS+0.1% BSA), alpha-melanocyte stimulating hormone (α-MSH) or test compound (diluted in DPBS). Each treatment condition was run in quadruplicate. On the third day in culture, the media was aspirated off and replaced with fresh media and test compound. At one week in culture, the cells were fixed with 10% phosphate-buffered formalin for 15 min, then rinsed with DPBS (Sigma) and placed in blocking serum for 30 min (horse serum; 1:50 dilution in DPBS; Vector Labs). The cultures were rinsed again with DPBS and then incubated in primary antibody for 2 hr (microtubule-associated protein-2 (MAP-2) is a selective marker for dendritic processes; anti-mouse monoclonal (Chemicon); 1:1000 dilution of MAP-2 in antibody diluent (Zymed)). Negative control wells were incubated in antibody diluent alone. Background signal was determined by blank wells (cell-free) incubated with or without antibody. Cultures were rinsed again with DPBS and then placed in fluorescein for 1 hr (FITC; anti-mouse IgG; rat adsorbed; 1:50 dilution in DPBS; Vector Labs). Cultures were rinsed a final time with DPBS and the plates were then read on a Cytofluor 4000 fluorescence plate reader. Neurite outgrowth was expressed as percent change from control (vehicle).
(§3) The data are expressed as percent change over the vehicle response. All compounds were screened at 50 nM. The abbreviation NA indicates no change/not active; the abbreviation ND indicates a compound not tested/response not determined.

Food-Deprived Rats = experiment: Rodent Feeding: Food Intake in Food-Deprived Rats (MC-4); assay type: in vivo, rat; conditions: for change in vivo at 10 mg/kg / change in vivo at 30 mg/kg: Rattus norvegicus; for change in vivo at 30 mg/kg: po
Source text: Rodent Feeding: Food Intake in Food-Deprived Rats (MC-4)
Male Long-Evans rats (180–200 grams) were housed individually and maintained on a once-a-day feeding schedule (i.e.10 a.m. until 4 p.m.) for five days following quarantine to allow the animals to acclimate to feeding on powdered chow (#5002 PMI Certified Rodent Meal) during the allotted time. The chow was made available in an open jar, anchored in the cage by a wire, with a metal follower covering the food to minimize spillage. Water was available ad-libitum.
Animals were fasted for 18 hours prior to testing. At the end of the fasting period, animals were administered either a test compound or vehicle. Vehicle and test compound were administered either orally (5 mL/kg) 60 minutes prior to the experiment, subcutaneously (1 mL/kg) 30 minutes prior to the experiment, or intraperitoneally (1 mL/kg) 30 minutes prior to the experiment. Test compounds were administered orally as a suspension in aqueous 0.5% methylcellulose-0.4% Tween 80, or intraperitoneally as a solution or suspension in PEG 200; compound concentrations typically ranged from 1 mg/kg to 100 mg/kg, preferably from 10–30 mg/kg. Food intake was measured at 2, 4, and 6 hours after administration by weighing the special jar containing the food before the experiment and at the specified times. Upon completion of the experiment, all animals were given a one-week washout period before re-testing.
Following the procedure described above, select compounds of the present invention were tested to measure the effect on food intake in fasted rats, as listed in Table 5 and 6.

[2] = target: T1, melanocortin MC-4 receptor; experiment: MC-4 receptor binding (Filtration); conditions: Filtration; read-out: IC50 MC-4 (μM) (Filtration)
Experimental: The procedures described above for the melanocortin MC-4 receptor were repeated for the melanocortin MC-3 receptor. Following the procedures described, representative compounds of the present invention were tested for binding in the MC-4 and/or MC-3 assay, as listed in Table 4.

Cortical Cells = experiment: Neurite Cell Outgrowth Assay, cortical cells; assay type: cell-based; conditions: Rattus norvegicus; 50 nM; percent change over the vehicle response; NA = no change/not active
Source text: as §1, §2, §3

MC5-R = MC5-R (Homo sapiens, UniProt P33032); experiment: MC5-R binding
human sebocytes = experiment: Visual observation of lipid granule formation in sebocytes; assay type: cell-based
Experimental: Semiconfluent cultures of 3T3 mouse fibroblasts (Swiss Albino mouse, ATCC CCL-92) were treated with mitomycin C (4 μg/ml) for 3 hours, trypsinized and seeded at a density of 2.5×10^5/9.5 cm^2 tissue culture plate in Dulbeccos Minimal Essential Medium (DMEM) containing 10% Colorado Calf Serum, PNC (100U/ml), STM (100 μg/ml), L glutamine (0.3 mg/ml), sodium pyruvate (1 mM) and nonessential amino acids (100 μM). The cells were incubated at 37° C. for 24 hours prior to their use as a feeder layer for sebocytes.
Human sebocytes were isolated from Dermatome shavings of postoperative pieces of human skin at 0.4–0.8 mm depths (this part of the skin was previously shown to be enriched in sebaceous glands). Shavings so obtained were treated with 1% Dispase in Iscoves medium containing 10% serum for 20 min at 37° C. The tissue was then placed in 0.3% trypsin/1% EDTA in Phosphate Buffered Saline (PBS) for 10 minutes at 37° C. Following this incubation the cells were gently scraped from the tissue in Growth medium (GM) containing DMEM/F12 media mixture (3:1), supplemented with 8% heat inactivated FBS, 2% heat inactivated human serum (HS), 1 mM sodium pyruvate, epidermal growth factor (10 ng/ml), insulin (10 μg/ml), hydrocortisone (0.4 μg/ml) and +/−cholera toxin (100 μg/ml), L-glutamine and antibiotics. Cells so obtained were filtered through nylon mesh ([…]), centrifuged at 750 RPM, re-suspended in GM and counted.
Resultant cells from the above isolation procedure were plated on the 3T3 feeder layers at 2×10^5/9.5 cm^2 in growth medium and maintained at 37° C. and 5% CO2 for 3 days (Phase I). Following the initial growth period they were transferred to a transition medium (TM) that consisted of DMEM/F12 media supplemented with 1 mM sodium pyruvate, insulin ([…]), transferrin ([…]) and selenium (5.5 μg/ml) (ITS), 2% heat inactivated FBS and 2% heat inactivated human serum as well as +/−cholera toxin (ch.t.) (100 μg/ml), L-glutamine and antibiotics (Phase II). Three days later the cells were changed to differentiation medium (DM), DMEM/F12 supplemented with ITS, 3,3′,5-triido-L-thyronine sodium (3 nM), 1%(v/v) trace element mix and the choice of differentiation agent i.e. bovine pituitary extract (10 μg/ml). This medium was changed every 3 days (Phase III).
Hormones, mixture of hormones i.e. bovine pituitary extract or compounds to be tested were added to the culture at the beginning of phase III. Two criteria were used to evaluate the effect of these materials on sebaceous cultures: 1) visual observations and 2) evaluation of sebaceous lipid accumulation and synthesis. The evaluation of lipid accumulation completed using the Nile red method. This method relies on visualization of neutral lipids by Nile red and quantitation by reading of fluorescence at 535 nm excitation, 580 nm emission using a plate reader. The lipid synthesis was evaluated by radioactive labeling using ^14C acetate and quantified by Bio Rad Phosphoimager (Molecular Imager, FX) using 4.1 Software.
Quantitation of accumulation/inhibition of neutral lipids in sebocytes was accomplished by Nile red binding assay. Briefly, following exposure of sebocytes to test compounds, the cells were allowed to interact with 1 μM Nile red in Hanks buffered saline solution containing DMSO and Pluronic F127. After 4 hours of incubation, washing and incubation overnight, the fluorescence was read at 535 excitation and 580 emission using a fluorescence plate reader.
Following the procedure described above, select compounds of the present invention were tested for visual and Nile red evaluation of lipid accumulation, with results as listed in Table 9.
Following the procedure described above, select compounds of the present invention were tested for their inhibitory effect on differentiation of human sebocytes. […]

T1 sequence (P32245 whole entry): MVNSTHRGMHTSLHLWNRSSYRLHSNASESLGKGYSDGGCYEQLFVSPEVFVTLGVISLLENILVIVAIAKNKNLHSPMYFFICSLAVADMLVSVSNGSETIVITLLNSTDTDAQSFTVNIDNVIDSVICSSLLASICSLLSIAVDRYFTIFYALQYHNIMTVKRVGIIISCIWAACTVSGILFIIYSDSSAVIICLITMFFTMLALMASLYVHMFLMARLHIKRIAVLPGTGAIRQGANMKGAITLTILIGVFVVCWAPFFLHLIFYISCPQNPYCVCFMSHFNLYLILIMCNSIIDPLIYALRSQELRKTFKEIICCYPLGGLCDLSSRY
Sequence of MC5-R (P33032 whole entry): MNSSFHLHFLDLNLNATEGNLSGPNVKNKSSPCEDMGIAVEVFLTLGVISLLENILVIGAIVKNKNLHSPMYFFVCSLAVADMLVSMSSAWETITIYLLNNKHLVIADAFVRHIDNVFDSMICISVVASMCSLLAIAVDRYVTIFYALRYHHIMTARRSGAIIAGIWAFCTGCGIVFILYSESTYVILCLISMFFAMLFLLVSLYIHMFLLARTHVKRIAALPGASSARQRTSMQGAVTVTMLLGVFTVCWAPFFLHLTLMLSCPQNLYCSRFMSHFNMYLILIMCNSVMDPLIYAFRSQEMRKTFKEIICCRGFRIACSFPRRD

Row | Structure (SMILES) | IC50 [1] [nM] | activation at 0.05 µM (Hippocampal Cells) [%] | change in vivo at 10 mg/kg (Food-Deprived Rats; ip, 2 h, ip, read-out: Change in Food Intake 0–2 hrs (%)) [%] | change in vivo at 10 mg/kg (Food-Deprived Rats; ip, 6 h, ip, read-out: Change in Food Intake 2–6 hrs (%)) [%] | change in vivo at 30 mg/kg (Food-Deprived Rats; 2 h, read-out: Change in Food Intake 0–2 hrs (%)) [%] | change in vivo at 30 mg/kg (Food-Deprived Rats; 6 h, read-out: Change in Food Intake 2–6 hrs (%)) [%] | Food Intake 2–6 hrs (Food-Deprived Rats; fasted rats, 10μ, ip) [g] | Food Intake 0–2 hrs (Food-Deprived Rats; fasted rats, ip) [g] | IC50 [2] [µM] | activation at 0.05 µM (Cortical Cells) [%] | IC50 (MC5-R) [µM] | Visual* 0.4 μM (inhibition of lipid granule formation) (human sebocytes; 0.4 μM) | Visual* 0.8 μM (inhibition of lipid granule formation) (human sebocytes; 0.8 μM)
1 | COc1ccc(Nc2nc(-c3ccccc3)[n+](-c3ccc(C)cc3)s2)cc1 [Compound 1] | 174 | 6 | -11.6 | -37 | -21.2 | -6.7 | 8.43 | 7.29 | 1.1 |  |  |  | 
2 | COc1ccc(Nc2nc(-c3ccccc3)[n+](-c3ccc(Cl)cc3)s2)cc1 [Compound 16] | 424 | 8 |  |  |  |  |  |  | 4.3 | 18 |  |  | 
3 | COc1ccccc1Nc1nc(-c2ccccc2)[n+](-c2ccc(Cl)cc2)s1 [Compound 17] | 351 | 8 |  |  |  |  |  |  | 7.7 | 17 |  |  | 
4 | Cc1ccc(Nc2nc(-c3ccccc3)[n+](-c3ccc(Cl)cc3)s2)cc1 [Compound 18] | 463 | 17 |  |  |  |  |  |  | 6 | 17 |  |  | 
5 | Clc1ccc(-[n+]2sc(Nc3ccccc3Cl)nc2-c2ccccc2)cc1 [Compound 21] | 392 | 27 |  |  |  |  |  |  | 7.8 | 2 |  |  | 
6 | COc1ccccc1Nc1nc(-c2ccc(C)cc2)[n+](-c2ccccc2OC)s1 [Compound 67] | 130 |  |  |  |  |  |  |  |  |  | 0.246 | ++ (++ =50%) | +++ (+++ = 75%)
7 | Cc1ccc(-n2s/c(=N/c3ccccc3)nc2-c2ccccc2)cc1 [Compound 82] | 826 | 14 |  |  |  |  |  |  | 1.5 | 15 |  |  | 
8 | COc1ccc(/N=c2\nc(-c3ccccc3)n(-c3ccc(C)cc3)s2)cc1 [Compound 83] | 833 | 11 |  |  |  |  |  |  | 1.9 | 9 |  |  | 

From patent US7049331B2, “1,2,4-thiadiazole derivatives as melanocortin receptor modulators” (Ortho-McNeil Pharmaceutical, Inc., priority 2001, dated 2006)
